Measurements from patent US11643439B2, “Multi-target compound with anticoagulation and antiplatelet activity, preparation method therefor, and use thereof” (SHAANXI MICOT TECHNOLOGY LIMITED COMPANY, priority 2015, dated 2023).
Marks after values point to notes of the source that are not given here.

What was measured:
[1] = test system: blood coagulation function; test: APTT in rabbits, single intravenous administration; type: in vivo, rabbit; conditions: single iv 6.0 mg/kg
Procedure: 1. Grouping and administration: 48 Rabbits were randomly divided into 6 groups, 8 rabbits per group. 1) Sham operation group (NS): Intravenous injection of the same volume of physiological saline; 2) positive control bivalirudin group (6 mg/kg); 3) positive control enoxaparin group (200 U/kg); 4) Low dose group of polypeptide 2 (3.0 mg/kg); 5) Medium dose group of polypeptide 2 (6.0 mg/kg); 6) High dose group of polypeptide 2 (12.0 mg/kg). Polypeptide 2 was administered by single intravenous administration. According to the body weight in kilograms of the rabbits, the sample was dissolved in 2 mL of physiological saline for single bolus injection. The sham operation group was administered with the same volume of physiological saline.
3.2 Determination of blood coagulation function: Blood samples were taken and the blood function (PT, TT, APTT) was determined at 0 min before administration, at points of 5 min and 15 min after administration, using a platelet-aggregation coagulation factor analyzer. Blood samples were centrifuged at 3510 rpm for 8 min to obtain platelet poor plasma (PPP). Reagent reconstruction and preservation were performed according to the operation requirements of the kit. Immediately after each blood sample was placed into a test cup and then added with PT. TT and APTT reagents, the test was started. After the test was completed, results were recorded.

[2] = test system: blood coagulation function; test: APTT in rats, intravenous maintenance administration; type: in vivo, rat
Procedure: (§1) 160 Rats were randomly divided into groups, 5 to 10 rats per group.
(§2) According to the body weight in kilograms of the rats, the first dose of a drug was dissolved in 2 mL of physiological saline for single bolus injection. The maintaining dose of drug was dissolved in 9 ml of physiological saline, and placed in a double-channel micro-injection pump, which was dripped off within 90 minutes at a dripping speed of 0.1 ml/min. The sham operation group was administered with the same volume of physiological saline.
(§3) The rats were fasted with free access to water overnight before the experiment.
(§4) The blood samples were taken before administration, administration for 60 minutes, and before termination of administration, respectively, to determine their activated partial thromboplastin time (APTT) and prothrombin time (PT). The blood samples were centrifuged at 3510 rpm for 8 minutes to obtain platelet poor plasma (PPP). Reagent reconstruction and preservation were performed according to the operation requirements of the kit. Immediately after each blood sample was placed into a test cup and then PT and APTT reagents were added, the test was started. After the test was completed, results were recorded.
(§5) 5.1 Determination of blood coagulation function: The blood samples were taken 0 min before administration, administration for 60 minutes, and termination of administration, respectively, and then determined using a platelet-aggregation coagulation factor analyzer for the blood coagulation functions (PT. APTT) and ACT.

[3] = test system: thrombin-induced pulmonary embolism; test: Thrombin-induced pulmonary embolism in mice; type: in vivo, mouse; conditions: thrombin 1500 u/kg, tail iv 8.0 mg/kg; for Mortality rate: within 15 min, 8 mg/kg
Procedure: Mice were randomly divided into 7 groups with 10 mice per group, in which group 1 was physiological saline group, group 2 was model control group, group 3 was positive control group of enoxaparin 0.5 mg/kg, group 4 was positive control group of bivalirudin 8 mg/kg, group 5 was low dose group of polypeptide 2 at 2.5 mg/kg, group 6 was medium dose group of polypeptide 2 at 5.0 mg/kg, and group 7 was high dose group of polypeptide 2 at 10.0 mg/kg. Except that physiological saline group and model control group were subjected to tail intravenous injection of 200 μl physiological saline, the other groups were given according to the doses, respectively. After 2 min, the mice in physiological saline group were administered with 100 μl physiological saline through tail intravenous injection and the other groups were each administered with 100 μl thrombin based on 1500 u/kg (80% to 90% of the lethal dose) through tail intravenous injection. The mice were observed after the administration for their death within 15 min.
(1) Recording mortality rate: the death status of mice with acute pulmonary embolism mice within 15 min was recorded and the survival time was recorded, to calculate the mortality rate;
(2) Determining lung coefficient: immediately after death, the bronchial and adipose tissues were dissected away from the lung tissue, and the lung tissue was washed with distilled water, and weighed for the lung weight after soaking up the water on the surface of the lung with a filter paper. The lung was taken out and weighed, to calculate the lung coefficient. Lung coefficient=Lung weight/Body weight×100%;
The lung was immediately dissected and taken out and weighed to determine the lung coefficient.

[4] = test system: FeCl3-induced inferior vena cava thrombosis; test: FeCl3-induced inferior vena cava thrombosis in rats; type: in vivo, rat
Procedure: as §1, §2, §3
15 minutes later, the filter paper was removed. And then, after observation for 45 minutes, the blood vessels and local tissues were rinsed with warm physiological saline, and the covered blood vessels were cut off. The thrombus which attached to the blood vessel walls was peeled off to be weighed on a tin foil for its wet weight, and then weighed overnight at room temperature for its dry weight. The administration was continued until the completion of the experiment.
After the experiment was completed, the segment of the blood vessels in which there had been thrombus formation was cut off, weighed for the wet weight, and then weighed overnight at room temperature for the dry weight of the thrombus. Thrombosis inhibitory rate was calculated.

[5] = test system: blood coagulation function; test: PT in rats, intravenous maintenance administration; type: in vivo, rat
Procedure: as §1, §2, §3, §4, §5

[6] = iv 0.08 + 0.325 (mg/kg + mg/kg/h)
[7] = iv 0.17 + 0.65 (mg/kg + mg/kg/h)
[8] = iv 0.35 + 3.3 (mg/kg + mg/kg/h)
[9] = iv 0.35 + 1.3 (mg/kg + mg/kg/h)

With “Bivalirudin: Bivalirudin for Injection, Xi'an Xintong Pharmaceutical Research Co., Ltd.; positive control thrombin inhibitor” the “APTT fold of prolongation” value ([1]; Administration 5 min) was 2.4 ± 0.3, the “APTT fold of prolongation” value ([1]; Administration 15 min) was 1.4 ± 0.3 and the APTT ([1]; Administration for 5 min) was 50.4 ± 3.6 s. For the same substance, the APTT ([1]; Administration for 15 min) was 30.9 ± 2.7 s, the APTT ([1]; Before administration) was 21.6 ± 1.0 s and the “APTT Before administration” value [2, 6] was 25.05 ± 1.78. The “APTT Fold of change” value [2, 6] was 1.36 ± 0.50, the “APTT administration for 60 minutes” value [2, 6] was 34.18 ± 12.92 and the “APTT Before administration” value [2, 7] was 25.55 ± 5.02. The “APTT Fold of change” value [2, 7] was 1.66 ± 0.60, the “APTT administration for 60 minutes” value [2, 7] was 41.46 ± 14.96 and the “APTT Before administration” value [2, 8] was 23.16 ± 2.37. The “APTT Fold of change” value [2, 8] was 4.10 ± 1.86, the “APTT administration for 60 minutes” value [2, 8] was 95.86 ± 45.71 and the “APTT Before administration” value ([2]; iv 0.5 + 2 (mg/kg + mg/kg/h)) was 24.77 ± 7.84. The “APTT Fold of change” value ([2]; iv 0.5 + 2 (mg/kg + mg/kg/h)) was 3.89 ± 1.37, the “APTT administration for 60 minutes” value ([2]; iv 0.5 + 2 (mg/kg + mg/kg/h)) was 90.23 ± 21.92 and the Lung coefficient [3] was 0.99 ± 0.07 g/100 g. The Number of platelets [3] was 411.89 ± 175.52 ×10^9, the Mortality rate [3] was 10**^## % and the Mortality rate ([3]; listed as bivalirudin) was 10%. The “Inferior vena cava thrombosis Inhibition percentage” value [4, 6] was 20.03%, the “Inferior vena cava thrombosis Thrombus weight” value [4, 6] was 18.03 ± 1.39 mg and the “Inferior vena cava thrombosis Inhibition percentage” value [4, 7] was 35.97%. The “Inferior vena cava thrombosis Thrombus weight” value [4, 7] was 14.43 ± 3.84 mg, the “Inferior vena cava thrombosis Inhibition percentage” value [4, 9] was 68.67% and the “Inferior vena cava thrombosis Thrombus weight” value [4, 9] was 7.06 ± 4.07 mg. For the same substance, the “Inferior vena cava thrombosis Inhibition percentage” value ([4]; iv 0.5 + 2 (mg/kg + mg/kg/h)) was 67.79%, the “Inferior vena cava thrombosis Thrombus weight” value ([4]; iv 0.5 + 2 (mg/kg + mg/kg/h)) was 7.26 ± 3.15 mg and the “PT Before administration” value [5, 6] was 10.42 ± 1.16. For the same substance, the “PT Fold of change” value [5, 6] was 1.82 ± 0.24, the “PT administration for 60 minutes” value [5, 6] was 18.95 ± 3.36 and the “PT Before administration” value [5, 7] was 11.16 ± 1.28. For the same substance, the “PT Fold of change” value [5, 7] was 1.99 ± 0.78, the “PT administration for 60 minutes” value [5, 7] was 21.85 ± 7.38 and the “PT Before administration” value [5, 9] was 11.73 ± 1.48. The “PT Fold of change” value [5, 9] was 3.54 ± 1.45, the “PT administration for 60 minutes” value [5, 9] was 42.58 ± 21.94 and the “PT Before administration” value ([5]; iv 0.5 + 2 (mg/kg + mg/kg/h)) was 7.87 ± 1.93. For the same substance, the “PT Fold of change” value ([5]; iv 0.5 + 2 (mg/kg + mg/kg/h)) was 4.46 ± 1.47 and the “PT administration for 60 minutes” value ([5]; iv 0.5 + 2 (mg/kg + mg/kg/h)) was 39.13 ± 7.30.
